{"source": "patent US8178506B2", "about": "“Oligomeric compounds and compositions for use in modulation of small non-coding RNAs” (Regulus Therapeutics Inc., priority 2003, dated 2012)", "type_in_all_cases": "cell-based, human", "key": {"HepG2 cells": {"tested_on": "HepG2 cells", "test": "Insulin signaling assay in HepG2 cells, marker genes taken together", "conditions": "for expression of the IGFBP-1, PEPCK-c and follistatin marker genes: 100 nM"}, "mir-15a pri-miRNA": {"tested_on": "mir-15a pri-miRNA", "test": "mir-15a pri-miRNA expression in T47D cells (real-time RT-PCR)", "conditions": "for levels of the mir-15a pri-miRNA molecule: 100 nM; for mir-15a pri-miRNA expression % UTC: real-time RT-PCR", "from_the_text": "The gapmer oligomeric compounds targeting the mir-15b and mir-15-a-1 mature miRNAs described above were also transfected into T47D cells according to standard procedures. In addition, uniform 2′-MOE and 2′-MOE gapmer oligomeric compounds targeting the mature mir-15a-1 and mir-15b miRNAs were also transfected into T47D cells, for analysis of their effects on mir-15a-1 and mir-15b pri-miRNA levels. The oligomeric compounds ISIS Number 327927 (SEQ ID NO: 345), a uniform 2′-MOE compound and ISIS Number 345391 (SEQ ID NO: 345), a 2′-MOE 5-10-7 gapmer compound, both target mir-15b. The oligomeric compounds ISIS Number 327951 (SEQ ID NO: 369), a uniform 2′-MOE compound, and ISIS Number 345411 (SEQ ID NO: 369), a 2′-MOE 5-10-7 gapmer compound, both target mir-15a-1. Oligomeric compounds ISIS Number 129686 ([…]; SEQ ID NO: 901), and ISIS Number 129691 ([…]; SEQ ID NO:902), both universal scrambled controls, as well as ISIS Number 116847 ([…]; SEQ ID NO: 844) targeting an unrelated gene, PTEN, were used as negative controls. ISIS Numbers 129686, 129691, and 116847 are phosphorothiated 2′-MOE 5-10-5 gapmers, and all cytosines are 5-methylcytosines. T47D cells (seeded in 12-well plates) were treated with these oligomeric compounds, and RNA was isolated from the treated cells by lysing in 1 mL TRIZOL™ (Invitrogen) and total RNA was prepared using the manufacturer's recommended protocols. To assess the effects of these compounds on expression of the mir-15a or mir-15b pri-miRNA molecules, real-time RT-PCR analysis was performed using either the primer/probe set specific for the mir-15a pri-miRNA molecule described above, or a primer probe set specific for the mir-15b pri-miRNA molecule: ISIS 339320 ([…]; SEQ ID NO: 903) was used as the forward primer for the mir-15b pri-miRNA, ISIS 339321 ([…] ACTGT; SEQ ID NO: 904) was used as the reverse primer for the mir-15b pri-miRNA, and ISIS 339322 ([…]; SEQ ID NO: 905) was used as the probe. Total RNA was quantified using RiboGreen™ RNA quantification reagent (Molecular Probes, Inc. Eugene, Oreg.), expression levels observed for each target were normalized to 5.8S rRNA, and values are expressed relative to the untreated control. Inhibition of expression of the mir15a or mir-15b pri-miRNA molecules upon treatment with these oligomeric compounds is was assessed and expressed as a percentage of RNA levels in untreated control cells.\nUsing the real-time RT-PCR methods described, the expression levels of the mir-15a pri-miRNA were compared in T47D cells treated with the nested series of uniform 2′-MOE oligomeric compounds, targeting and spanning the entire length of the mir-15a pri-miRNA. The region encompassing the mir-15a primary transcript (the complement of nucleotides 31603159 to 31603468 of GenBank Accession number NT—024524.13; AAATAATTATG […]) is incorporated herein as SEQ ID NO: 906. ISIS Number 356215 (SEQ ID NO: 879) targets a region flanking and immediately 5′ to the predicted 5′ Drosha cleavage site in the mir-15a pri-miRNA. ISIS Number 356218 (SEQ ID NO: 881) targets aregion in the loop of the mir-15a pri-miRNA. ISIS 356227 (SEQ ID NO: 883) targets a region flanking and immediately 3′ to the predicted 3′ Drosha cleavage site in the mir-15a pri-miRNA. Additionally, oligomeric compound ISIS 327951 (SEQ ID NO: 369), a uniform 2′-MOE compound targeting the mature mir-15a-1 miRNA, was tested for comparison. Oligomeric compounds ISIS 327901 (SEQ ID NO: 319) targeting the mature mir-143 miRNA; ISIS 129690, ([…]; SEQ ID NO: 907), a phosphorothioate 5-10-5 MOE gapmer used as a universal scrambled control; and ISIS 116847 ([…]; SEQ ID NO: 844), a uniform 5-10-52′-MOE gapmer targeting an unrelated gene, PTEN, were used as negative controls. Using the transfection methods previously described, T47D cells were treated with 100 nM of each of these oligomeric compounds. […]"}, "[1]": {"tested_on": "preadipocytes / differentiating adipocytes", "test": "Adipocyte differentiation assay, markers taken together", "conditions": "differentiating adipocytes, % of UTC (Table 55)"}}, "note": "“Also recorded” adds a separate entry of the source. In the oligonucleotide strings, read from the 5' end, every base follows the letter of its sugar. An asterisk marks phosphorothioate; unmarked linkages are phosphodiester. Other units and linkages are bracketed, terminal groups are in braces. A string of capitals states the bases alone. e = 2'-O-(2-methoxyethyl) (MOE); [5mC] = 5-methylcytosine; d = 2'-deoxy (DNA)", "data": [{"substance": "ISIS 341803: SEQ ID NO: 760, targeting mir-206 (antisense CCACACACTTCCTTACATTCCA; all 2'-MOE, all phosphorothioate, methylation of C not given here)", "values": [{"measurement": "IGFBP-1 and PEPCK-c marker genes", "setting": "HepG2 cells; HepG2, basal (no insulin)", "result": "increases in the IGFBP-1 and PEPCK-c marker genes"}]}, {"substance": "ISIS 356232: uniform 2′-MOE PS; targets mir-15a pri-miRNA (antisense eA*eA*eA*eT*eA*eT*eA*eT*eT*eT*eT*e[5mC]*eT*eT*e[5mC]*eA*eG*eA*eA*eG)", "values": [{"measurement": "levels of the mir-15a pri-miRNA molecule", "setting": "mir-15a pri-miRNA", "result": "stimulate an increase in levels of the mir-15a pri-miRNA molecule"}]}, {"substance": "ISIS 356231: uniform 2′-MOE PS; targets mir-15a pri-miRNA (antisense eT*eT*e[5mC]*eA*eG*eA*eA*eG*eA*eT*e[5mC]*eA*eG*eA*eT*e[5mC]*e[5mC]*eT*eT*eG)", "values": [{"measurement": "levels of the mir-15a pri-miRNA molecule", "setting": "mir-15a pri-miRNA", "result": "stimulate an increase in levels of the mir-15a pri-miRNA molecule"}]}, {"substance": "CCAAGTTCTGTCATGCACTGA (anti-miR; chemistry not fully specified) [ISIS 327964, uniform 2′-MOE PS; targets mir-152]", "values": [{"measurement": "expression of the IGFBP-1, PEPCK-c and follistatin marker genes", "setting": "HepG2 cells; HepG2, 1 nM insulin", "result": "increased expression of the IGFBP-1, PEPCK-c and follistatin marker genes"}]}, {"substance": "AACCGATTTCAAATGGTGCTAG (anti-miR; chemistry not fully specified) [ISIS 327913, uniform 2′-MOE PS; targets mir-29c]", "values": [{"measurement": "expression of the IGFBP-1, PEPCK-c and follistatin marker genes", "setting": "HepG2 cells; HepG2, 1 nM insulin", "result": "increased expression of the IGFBP-1, PEPCK-c and follistatin marker genes"}, {"measurement": "expression of the IGFBP-1, PEPCK-c and follistatin marker genes", "setting": "HepG2 cells; HepG2, basal (no insulin)", "result": "increased expression of the IGFBP-1, PEPCK-c and follistatin marker genes"}]}, {"substance": "ISIS 356215: uniform 2′-MOE PS; SEQ ID NO: 879; region immediately 5′ to 5′ Drosha cleavage site of mir-15a pri-miRNA (antisense eT*eG*e[5mC]*eT*eA*e[5mC]*eT*eT*eT*eA*e[5mC]*eT*e[5mC]*e[5mC]*eA*eA*eG*eG*eT*eT) [uniform 2′-MOE PS; region immediately 5′ to 5′ Drosha cleavage site of mir-15a pri-miRNA]", "values": [{"measurement": "levels of the mir-15a pri-miRNA molecule", "setting": "mir-15a pri-miRNA", "result": "stimulate an increase in levels of the mir-15a pri-miRNA molecule; also recorded: stimulate the greatest increases in expression of the mir-15a pri-miRNA"}]}, {"substance": "ISIS 356229: uniform 2′-MOE PS; SEQ ID NO: 884; targets mir-15a pri-miRNA (antisense eA*eG*eA*eT*e[5mC]*eA*eG*eA*eT*e[5mC]*e[5mC]*eT*eT*eG*eT*eA*eT*eT*eT*eT) [uniform 2′-MOE PS; targets mir-15a pri-miRNA]", "values": [{"measurement": "levels of the mir-15a pri-miRNA molecule", "setting": "mir-15a pri-miRNA", "result": "stimulate an increase in levels of the mir-15a pri-miRNA molecule"}]}, {"substance": "TGTAAACCATGATGTGCTGCTA (anti-miR; chemistry not fully specified) [ISIS 327927, uniform 2′-MOE PS; targets mir-15b]", "values": [{"measurement": "five markers of adipocyte differentiation", "setting": "[1]", "result": "increase in all five markers of adipocyte differentiation"}, {"measurement": "levels of the mir-15a pri-miRNA molecule", "setting": "mir-15a pri-miRNA", "result": "stimulate an increase in levels of the mir-15a pri-miRNA molecule"}]}, {"substance": "GGGGTATTTGACAAACTGACA (anti-miR; chemistry not fully specified) [ISIS 327961, uniform 2′-MOE PS; targets mir-223]", "values": [{"measurement": "expression of the IGFBP-1, PEPCK-c and follistatin marker genes", "setting": "HepG2 cells; HepG2, 1 nM insulin", "result": "increased expression of the IGFBP-1, PEPCK-c and follistatin marker genes"}, {"measurement": "expression of the IGFBP-1 and follistatin marker genes", "setting": "HepG2 cells; HepG2, basal (no insulin)", "result": "increased expression of the IGFBP-1 and follistatin marker genes"}]}, {"substance": "356231 (eT*eT*e[5mC]*eA*eG*eA*eA*eG*eA*eT*e[5mC]*eA*eG*eA*eT*e[5mC]*e[5mC]*eT*eT*eG) [compound 356231]", "values": [{"measurement": "mir-15a pri-miRNA expression % UTC", "setting": "mir-15a pri-miRNA", "result": 811, "unit": "% UTC"}]}, {"substance": "ISIS 356216: uniform 2′-MOE PS; SEQ ID NO: 880; targets mir-15a pri-miRNA (antisense eG*e[5mC]*eA*e[5mC]*e[5mC]*eT*eT*eT*eT*e[5mC]*eA*eA*eA*eA*eT*e[5mC]*e[5mC]*eA*e[5mC]*eA) [uniform 2′-MOE PS; targets mir-15a pri-miRNA]", "values": [{"measurement": "levels of the mir-15a pri-miRNA molecule", "setting": "mir-15a pri-miRNA", "result": "stimulate an increase in levels of the mir-15a pri-miRNA molecule"}]}, {"substance": "116847 (antisense e[5mC]*eT*eG*e[5mC]*eT*dA*dG*d[5mC]*d[5mC]*dT*d[5mC]*dT*dG*dG*dA*eT*eT*eT*eG*eA) [compound 116847]", "values": [{"measurement": "mir-15a pri-miRNA expression % UTC", "setting": "mir-15a pri-miRNA", "result": 132, "unit": "% UTC"}]}, {"substance": "ISIS 356221: uniform 2′-MOE PS; SEQ ID NO: 882; targets mir-15a pri-miRNA (antisense eA*eG*e[5mC]*eA*e[5mC]*eA*eA*eT*eA*eT*eG*eG*e[5mC]*e[5mC]*eT*eG*e[5mC]*eA*e[5mC]*e[5mC]) [uniform 2′-MOE PS; targets mir-15a pri-miRNA]", "values": [{"measurement": "levels of the mir-15a pri-miRNA molecule", "setting": "mir-15a pri-miRNA", "result": "stimulate an increase in levels of the mir-15a pri-miRNA molecule"}]}, {"substance": "356232 (eA*eA*eA*eT*eA*eT*eA*eT*eT*eT*eT*e[5mC]*eT*eT*e[5mC]*eA*eG*eA*eA*eG) [compound 356232]", "values": [{"measurement": "mir-15a pri-miRNA expression % UTC", "setting": "mir-15a pri-miRNA", "result": 631, "unit": "% UTC"}]}, {"substance": "ISIS 356218: uniform 2′-MOE PS; SEQ ID NO: 881; loop of the mir-15a pri-miRNA (antisense eT*eG*eG*e[5mC]*e[5mC]*eT*eG*e[5mC]*eA*e[5mC]*e[5mC]*eT*eT*eT*eT*e[5mC]*eA*eA*eA*eA) [uniform 2′-MOE PS; loop of the mir-15a pri-miRNA]", "values": [{"measurement": "levels of the mir-15a pri-miRNA molecule", "setting": "mir-15a pri-miRNA", "result": "stimulate an increase in levels of the mir-15a pri-miRNA molecule"}]}, {"substance": "GAAAGAGACCGGTTCACTGTGA (anti-miR; chemistry not fully specified) [ISIS 327923, uniform 2′-MOE PS; targets mir-128b]", "values": [{"measurement": "expression of the IGFBP-1, PEPCK-c and follistatin marker genes", "setting": "HepG2 cells; HepG2, 1 nM insulin", "result": "increased expression of the IGFBP-1, PEPCK-c and follistatin marker genes"}]}, {"substance": "CACAAATTCGGATCTACAGGGTA (anti-miR; chemistry not fully specified) [ISIS 327949, uniform 2′-MOE PS; targets mir-10a]", "values": [{"measurement": "expression of the IGFBP-1 and follistatin marker genes", "setting": "HepG2 cells; HepG2, basal (no insulin)", "result": "increased expression of the IGFBP-1 and follistatin marker genes"}]}, {"substance": "ISIS 341802: SEQ ID NO: 1806, targeting mir-191 (antisense AGCUGCUUUUGGGAUUCCGUUG; all 2'-MOE, all phosphorothioate, methylation of C and T or U not given here)", "values": [{"measurement": "expression of the IGFBP-1 and follistatin marker genes", "setting": "HepG2 cells; HepG2, basal (no insulin)", "result": "increased expression of the IGFBP-1 and follistatin marker genes"}]}, {"substance": "ISIS 356227: uniform 2′-MOE PS; SEQ ID NO: 883; region immediately 3′ to 3′ Drosha cleavage site of mir-15a pri-miRNA (antisense eT*e[5mC]*e[5mC]*eT*eT*eG*eT*eA*eT*eT*eT*eT*eT*eG*eA*eG*eG*e[5mC]*eA*eG) [uniform 2′-MOE PS; region immediately 3′ to 3′ Drosha cleavage site of mir-15a pri-miRNA]", "values": [{"measurement": "levels of the mir-15a pri-miRNA molecule", "setting": "mir-15a pri-miRNA", "result": "stimulate an increase in levels of the mir-15a pri-miRNA molecule; also recorded: stimulate the greatest increases in expression of the mir-15a pri-miRNA"}]}]}
